Results reported in ChEMBL document CHEMBL1139637, “Synthesis, X-ray crystallographic analysis, and antitumor activity of 1-acyl-3,6-disubstituted phenyl-1,4-dihydro-1,2,4,5-tetrazines” (2005).

Key:
A549 [1] = test: Inhibition ratio against the growth of A-549 cells at 10e-4 mol/L concentration determined by SRB method; format: functional, Homo sapiens
A549 [2] = test: Inhibition ratio against the growth of A-549 cells at 10e-5 mol/L concentration determined by SRB method; format: functional, Homo sapiens
A549 [3] = test: Inhibition ratio against the growth of A-549 cells at 10e-6 mol/L concentration determined by SRB method; format: functional, Homo sapiens
A549 [4] = test: Inhibition ratio against the growth of A-549 cells at 10e-7 mol/L concentration determined by SRB method; format: functional, Homo sapiens
A549 [5] = test: Inhibition ratio against the growth of A-549 cells at 10e-8 mol/L concentration determined by SRB method; format: functional, Homo sapiens
P388 [6] = test: Inhibition ratio against the growth of P-388 cells at 10e-4 mol/L concentration determined by MTT method; format: functional, Mus musculus
P388 [7] = test: Inhibition ratio against the growth of P-388 cells at 10e-5 mol/L concentration determined by MTT method; format: functional, Mus musculus
P388 [8] = test: Inhibition ratio against the growth of P-388 cells at 10e-6 mol/L concentration determined by MTT method; format: functional, Mus musculus
P388 [9] = test: Inhibition ratio against the growth of P-388 cells at 10e-7 mol/L concentration determined by MTT method; format: functional, Mus musculus
P388 [10] = test: Inhibition ratio against the growth of P-388 cells at 10e-8 mol/L concentration determined by MTT method; format: functional, Mus musculus

Compound | Inhibition ratio (A549 [1]) | Inhibition ratio (A549 [2]) | Inhibition ratio (A549 [3]) | Inhibition ratio (A549 [4]) | Inhibition ratio (A549 [5]) | Inhibition ratio (P388 [6]) | Inhibition ratio (P388 [7]) | Inhibition ratio (P388 [8]) | Inhibition ratio (P388 [9]) | Inhibition ratio (P388 [10])
CC(C)C(=O)N1N=C(c2ccccc2)NN=C1c1ccccc1 | 83.8 | 46.6 | 38.7 | 29.6 | 29.5 | 82.5 | 61.1 | 52 | 24.9 | 46.9
O=C(CCl)N1N=C(c2ccc(C(F)(F)F)cc2)NN=C1c1ccc(C(F)(F)F)cc1 | 95.5 | 64.6 | 0 | 0 | 0 | 98.4 | 49.4 | 2.2 | 11.3 | 0
CCC(=O)N1N=C(c2ccc(C(F)(F)F)cc2)NN=C1c1ccc(C(F)(F)F)cc1 | 84.7 | 48.1 | 21.7 | 0 | 9 | 68 | 21.1 | 6.7 | 6.3 | 0
CC(=O)N1N=C(c2ccccc2)NN=C1c1ccccc1 | 85.1 | 0 | 0 | 0 | 0 | 62.7 | 10.9 | 6.6 | 5.5 | 9.2
O=C(CCl)N1N=C(c2ccccc2)NN=C1c1ccccc1 | 95.4 | 95.8 | 35.3 | 4.1 | 13 | 99.1 | 100 | 3.9 | 3.6 | 0
CCC(=O)N1N=C(c2ccccc2)NN=C1c1ccccc1 | 71.5 | 11.1 | 6.2 | 12.3 | 0 | 30.9 | 9.8 | 7.6 | 7.7 | 8.5
CC(C)C(=O)N1N=C(c2ccc(C(F)(F)F)cc2)NN=C1c1ccc(C(F)(F)F)cc1 | 79.8 | 21 | 0 | 0 | 0 | 42.2 | 26.9 | 15 | 16.2 | 13.4
CC(=O)N1N=C(c2ccc(C(F)(F)F)cc2)NN=C1c1ccc(C(F)(F)F)cc1 | 91.1 | 63.6 | 0 | 0 | 0 | 50.6 | 21.5 | 1.1 | 5 | 0
